# Results: publication PMC12892976, “Alkylation-based optimization of antifungal FPPS inhibitors yields a potent, broad-spectrum lipophilic zoledronate derivative” (mBio, 2025)
# Tests used:
# Aspergillus niger = experiment: checkerboard drug interaction (FICI, MICc); type: cell-based;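 also: simplified diagonal checkerboard screen pairing antifungals with FPPS inhibitors, FICI calculated under the Loewe additivity model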
# Description: (§1) Drug interactions between antifungals and FPPS inhibitors were investigated using a simplified checkerboard diagonal screening method ([45]). […] FICIs were determined according to the Loewe additivity model ([17]).
# Aspergillus terreus = experiment: checkerboard drug interaction (FICI, MICc); type: cell-based;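 also: simplified diagonal checkerboard screen pairing antifungals with FPPS inhibitors, FICI derived by the Loewe additivity model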
# Description: as §1
# Aspergillus udagawae = experiment: checkerboard drug interaction (FICI, MICc); type: cell-based;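 also: simplified diagonal checkerboard screen pairing antifungals with FPPS inhibitors, FICI calculated using the Loewe additivity model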
# Description: as §1
# Aspergillus lentulus = experiment: checkerboard drug interaction (FICI, MICc); type: cell-based;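 also: simplified diagonal checkerboard screen pairing antifungals with FPPS inhibitors, with the interaction index calculated under the Loewe additivity model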
# Description: as §1
# Microsporum canis [1] = experiment: checkerboard drug interaction (FICI, MICc); type: cell-based;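 also: simplified diagonal checkerboard screen pairing antifungals with FPPS inhibitors, FICI calculated under the Loewe additivity model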
# Description: as §1
# Nannizzia nana = experiment: checkerboard drug interaction (FICI, MICc); type: cell-based;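 also: simplified diagonal checkerboard screen pairing antifungals with FPPS inhibitors, FICI calculated under the Loewe additivity model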
# Description: as §1
# Trichophyton tonsurans = experiment: checkerboard drug interaction (FICI, MICc); type: cell-based;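 also: simplified diagonal checkerboard screen combining antifungals with FPPS inhibitors, with FICI calculated under the Loewe additivity model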
# Description: as §1
# Microsporum canis [2] = experiment: MIC broth microdilution (CLSI); conditions: Microsporum canis R-232
# Description: (§2) Antifungal susceptibility was determined by broth microdilution according to the CLSI guidelines described in M27-Ed4 ([16]).
# Trichophyton soudanense = experiment: MIC broth microdilution (CLSI); conditions: Trichophyton soudanense R-167
# Description: as §2
# Aspergillus parafelis = experiment: checkerboard drug interaction (FICI, MICc);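 also: simplified diagonal checkerboard screen pairing antifungals with FPPS inhibitors, FICI calculated under the Loewe additivity model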
# Description: as §1
# Paraphyton cookei = experiment: checkerboard drug interaction (FICI, MICc);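 also: simplified diagonal checkerboard screen pairing an antifungal with an FPPS inhibitor, FICI computed under the Loewe additivity model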
# Description: as §1
# Nannizzia gypsea = experiment: checkerboard drug interaction (FICI, MICc);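 also: simplified diagonal checkerboard screen pairing antifungals with FPPS inhibitors, FICI derived using the Loewe additivity model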
# Description: as §1
compound,measurement,setting,value
"O=P(O)(O)C(O)(Cn1ccnc1)P(=O)(O)O [ZOL, zoledronate]",bisphosphonate MICc,Aspergillus niger; ZOL with 5FC,512
same,bisphosphonate MICc,Aspergillus niger; ZOL with AMB,8
same,bisphosphonate MICc,Aspergillus niger; ZOL with CAS,512
same,bisphosphonate MICc,Aspergillus niger; ZOL with FLC,512
same,bisphosphonate MICc,Aspergillus niger; ZOL with ITR,32
same,bisphosphonate MICc,Aspergillus niger; ZOL with KET,256
same,bisphosphonate MICc,Aspergillus niger; ZOL with VOR,8
same,FICI,Aspergillus terreus; 5FC:ZOL,1.5
same,FICI,Aspergillus terreus; AMB:ZOL,1
same,FICI,Aspergillus terreus; CAS:ZOL,1.5
same,FICI,Aspergillus terreus; FLC:ZOL,0.38
same,FICI,Aspergillus terreus; ITR:ZOL,0.51
same,FICI,Aspergillus terreus; KET:ZOL,0.25
same,FICI,Aspergillus terreus; VOR:ZOL,0.52
same,bisphosphonate MICc,Aspergillus terreus; ZOL with 5FC,128
same,bisphosphonate MICc,Aspergillus terreus; ZOL with AMB,64
same,bisphosphonate MICc,Aspergillus terreus; ZOL with CAS,64
same,bisphosphonate MICc,Aspergillus terreus; ZOL with FLC,32
same,bisphosphonate MICc,Aspergillus terreus; ZOL with ITR,32
same,bisphosphonate MICc,Aspergillus terreus; ZOL with KET,16
same,bisphosphonate MICc,Aspergillus terreus; ZOL with VOR,2
same,FICI,Aspergillus udagawae; 5FC:ZOL,≥4
same,FICI,Aspergillus udagawae; AMB:ZOL,0.63
same,FICI,Aspergillus udagawae; CAS:ZOL,2
same,FICI,Aspergillus udagawae; FLC:ZOL,1.01
same,FICI,Aspergillus udagawae; ITR:ZOL,1
same,FICI,Aspergillus udagawae; KET:ZOL,0.75
same,FICI,Aspergillus udagawae; VOR:ZOL,1
same,bisphosphonate MICc,Aspergillus udagawae; ZOL with 5FC,512
same,bisphosphonate MICc,Aspergillus udagawae; ZOL with AMB,128
same,bisphosphonate MICc,Aspergillus udagawae; ZOL with CAS,256
same,bisphosphonate MICc,Aspergillus udagawae; ZOL with FLC,2
same,bisphosphonate MICc,Aspergillus udagawae; ZOL with ITR,128
same,bisphosphonate MICc,Aspergillus udagawae; ZOL with KET,128
same,bisphosphonate MICc,Aspergillus udagawae; ZOL with VOR,128
same,FICI,Aspergillus lentulus; 5FC:ZOL,3
same,FICI,Aspergillus lentulus; AMB:ZOL,0.56
same,FICI,Aspergillus lentulus; CAS:ZOL,0.63
same,FICI,Aspergillus lentulus; FLC:ZOL,0.25
same,FICI,Aspergillus lentulus; ITR:ZOL,0.31
same,FICI,Aspergillus lentulus; KET:ZOL,0.38
same,FICI,Aspergillus lentulus; VOR:ZOL,0.63
same,bisphosphonate MICc,Aspergillus lentulus; ZOL with 5FC,512
same,bisphosphonate MICc,Aspergillus lentulus; ZOL with AMB,32
same,bisphosphonate MICc,Aspergillus lentulus; ZOL with CAS,64
same,bisphosphonate MICc,Aspergillus lentulus; ZOL with FLC,2
same,bisphosphonate MICc,Aspergillus lentulus; ZOL with ITR,32
same,bisphosphonate MICc,Aspergillus lentulus; ZOL with KET,64
same,bisphosphonate MICc,Aspergillus lentulus; ZOL with VOR,256
same,FICI,Microsporum canis [1]; 5FC:ZOL,≥4
same,FICI,Microsporum canis [1]; AMB:ZOL,0.75
same,FICI,Microsporum canis [1]; CAS:ZOL,0.56
same,FICI,Microsporum canis [1]; FLC:ZOL,0.38
same,FICI,Microsporum canis [1]; ITR:ZOL,0.75
same,FICI,Microsporum canis [1]; KET:ZOL,0.31
same,FICI,Microsporum canis [1]; VOR:ZOL,0.63
same,bisphosphonate MICc,Microsporum canis [1]; ZOL with 5FC,64
same,bisphosphonate MICc,Microsporum canis [1]; ZOL with AMB,16
same,bisphosphonate MICc,Microsporum canis [1]; ZOL with CAS,4
same,bisphosphonate MICc,Microsporum canis [1]; ZOL with FLC,8
same,bisphosphonate MICc,Microsporum canis [1]; ZOL with ITR,16
same,bisphosphonate MICc,Microsporum canis [1]; ZOL with KET,4
same,bisphosphonate MICc,Microsporum canis [1]; ZOL with VOR,8
same,FICI,Nannizzia nana; 5FC:ZOL,≥4
same,FICI,Nannizzia nana; AMB:ZOL,1
same,FICI,Nannizzia nana; CAS:ZOL,0.75
same,FICI,Nannizzia nana; FLC:ZOL,0.5
same,FICI,Nannizzia nana; ITR:ZOL,0.65
same,FICI,Nannizzia nana; KET:ZOL,0.51
same,FICI,Nannizzia nana; VOR:ZOL,1.1
same,bisphosphonate MICc,Nannizzia nana; ZOL with 5FC,256
same,bisphosphonate MICc,Nannizzia nana; ZOL with AMB,64
same,bisphosphonate MICc,Nannizzia nana; ZOL with CAS,64
same,bisphosphonate MICc,Nannizzia nana; ZOL with FLC,32
same,bisphosphonate MICc,Nannizzia nana; ZOL with ITR,16
same,bisphosphonate MICc,Nannizzia nana; ZOL with KET,32
same,bisphosphonate MICc,Nannizzia nana; ZOL with VOR,8
same,FICI,Trichophyton tonsurans; 5FC:ZOL,2
same,FICI,Trichophyton tonsurans; AMB:ZOL,3.92
same,FICI,Trichophyton tonsurans; CAS:ZOL,1
same,FICI,Trichophyton tonsurans; FLC:ZOL,0.31
same,FICI,Trichophyton tonsurans; ITR:ZOL,0.38
same,FICI,Trichophyton tonsurans; KET:ZOL,0.25
same,FICI,Trichophyton tonsurans; VOR:ZOL,0.61
same,bisphosphonate MICc,Trichophyton tonsurans; ZOL with 5FC,128
same,bisphosphonate MICc,Trichophyton tonsurans; ZOL with AMB,256
same,bisphosphonate MICc,Trichophyton tonsurans; ZOL with CAS,64
same,bisphosphonate MICc,Trichophyton tonsurans; ZOL with FLC,8
same,bisphosphonate MICc,Trichophyton tonsurans; ZOL with ITR,16
same,bisphosphonate MICc,Trichophyton tonsurans; ZOL with KET,16
same,bisphosphonate MICc,Trichophyton tonsurans; ZOL with VOR,16
same,MIC / MEC,Microsporum canis [2],64 µg/mL
same,MIC / MEC,Trichophyton soudanense,64 µg/mL
same,FICI,Aspergillus parafelis; 5FC:ZOL,2
same,FICI,Aspergillus parafelis; AMB:ZOL,1.13
same,FICI,Aspergillus parafelis; CAS:ZOL,0.56
same,FICI,Aspergillus parafelis; FLC:ZOL,0.5
same,FICI,Aspergillus parafelis; ITR:ZOL,1.06
same,FICI,Aspergillus parafelis; KET:ZOL,2
same,FICI,Aspergillus parafelis; VOR:ZOL,0.5
same,bisphosphonate MICc,Aspergillus parafelis; ZOL with 5FC,512
same,bisphosphonate MICc,Aspergillus parafelis; ZOL with AMB,64
same,bisphosphonate MICc,Aspergillus parafelis; ZOL with CAS,32
same,bisphosphonate MICc,Aspergillus parafelis; ZOL with FLC,2
same,bisphosphonate MICc,Aspergillus parafelis; ZOL with ITR,32
same,bisphosphonate MICc,Aspergillus parafelis; ZOL with KET,512
same,bisphosphonate MICc,Aspergillus parafelis; ZOL with VOR,128
same,FICI,Paraphyton cookei; 5FC:ZOL,≥4
same,FICI,Paraphyton cookei; AMB:ZOL,0.5
same,FICI,Paraphyton cookei; CAS:ZOL,0.63
same,FICI,Paraphyton cookei; FLC:ZOL,0.63
same,FICI,Paraphyton cookei; ITR:ZOL,0.56
same,FICI,Paraphyton cookei; KET:ZOL,0.56
same,FICI,Paraphyton cookei; VOR:ZOL,0.38
same,bisphosphonate MICc,Paraphyton cookei; ZOL with 5FC,128
same,bisphosphonate MICc,Paraphyton cookei; ZOL with AMB,32
same,bisphosphonate MICc,Paraphyton cookei; ZOL with CAS,16
same,bisphosphonate MICc,Paraphyton cookei; ZOL with FLC,16
same,bisphosphonate MICc,Paraphyton cookei; ZOL with ITR,8
same,bisphosphonate MICc,Paraphyton cookei; ZOL with KET,8
same,bisphosphonate MICc,Paraphyton cookei; ZOL with VOR,16
same,FICI,Nannizzia gypsea; 5FC:ZOL,3
same,FICI,Nannizzia gypsea; AMB:ZOL,0.75
same,FICI,Nannizzia gypsea; CAS:ZOL,0.75
same,FICI,Nannizzia gypsea; FLC:ZOL,0.31
same,FICI,Nannizzia gypsea; ITR:ZOL,0.38
same,FICI,Nannizzia gypsea; KET:ZOL,0.19
same,FICI,Nannizzia gypsea; VOR:ZOL,0.28
same,bisphosphonate MICc,Nannizzia gypsea; ZOL with 5FC,256
same,bisphosphonate MICc,Nannizzia gypsea; ZOL with AMB,64
same,bisphosphonate MICc,Nannizzia gypsea; ZOL with CAS,64
same,bisphosphonate MICc,Nannizzia gypsea; ZOL with FLC,16
same,bisphosphonate MICc,Nannizzia gypsea; ZOL with ITR,32
same,bisphosphonate MICc,Nannizzia gypsea; ZOL with KET,32
same,bisphosphonate MICc,Nannizzia gypsea; ZOL with VOR,8
